The record followed here is patent US20260183303A1, “PDK1 REGULATORY COMPOUND AND COMPOSITION CONTAINING THE SAME” (PROVIBIO CO., LTD., priority 2024, published 2026).

SMILES strings stand for the structures.

For experiment [1], the system named is MRL/lpr mice with hair loss symptoms in the facial region. Description: Hair loss treatment and hair follicle Ki-67 IHC in MRL/lpr mice. The experiment is classed as in vivo. The conditions noted are these: 41-week-old female MRL/lpr mice; GO15F (30 mg/kg), G048 (1 mg/kg), G088 (0.5 mg/kg) intraperitoneally once daily. The protocol:
Additionally, in 41-week-old female MRL/lpr mice, the compounds GO15F (30 mg/kg), G048 (1 mg/kg), and G088 (0.5 mg/kg) were administered intraperitoneally once daily.
To confirm the proliferative activity of hair follicle cells in the skin tissue of these mice, the mice were sacrificed 14 days after administration of the compounds of the present invention, and Ki-67 immunohistochemistry […] was performed.
For this purpose, the excised skin tissue was fixed in formalin, embedded in paraffin blocks, and stained with a Ki-67-specific antibody on tissue sections prepared as slides.

Experiment [2] deals with T1, PDK1 (phosphoinositide-dependent kinase 1) phosphorylation (Homo sapiens, UniProt O15530).
T1 construct: endogenous in cells; host or cells: SU-DHL-8 (ATCC CRL-2961)
T1 sequence (O15530 1-556): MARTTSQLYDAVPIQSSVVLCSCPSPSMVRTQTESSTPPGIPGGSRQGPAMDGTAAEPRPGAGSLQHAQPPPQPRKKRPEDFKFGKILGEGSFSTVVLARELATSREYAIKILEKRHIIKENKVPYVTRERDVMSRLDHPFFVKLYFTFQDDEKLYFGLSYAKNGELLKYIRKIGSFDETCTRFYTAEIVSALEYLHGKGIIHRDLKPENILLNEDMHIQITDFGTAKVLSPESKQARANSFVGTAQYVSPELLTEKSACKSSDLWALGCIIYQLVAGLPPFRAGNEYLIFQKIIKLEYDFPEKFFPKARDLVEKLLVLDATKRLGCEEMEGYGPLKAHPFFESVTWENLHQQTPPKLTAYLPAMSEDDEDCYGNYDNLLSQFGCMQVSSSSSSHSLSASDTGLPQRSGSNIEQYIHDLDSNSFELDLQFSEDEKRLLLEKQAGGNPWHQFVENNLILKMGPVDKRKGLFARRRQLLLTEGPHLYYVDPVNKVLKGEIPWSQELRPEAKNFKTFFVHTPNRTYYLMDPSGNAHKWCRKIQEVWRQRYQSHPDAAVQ
Description: PDK1 phosphorylation (pPDK1-PE) by flow cytometry in SU-DHL-8 cells. Type of experiment: cell-based. The conditions noted are these: 24 hours, compared to the control group. The protocol:
After stabilizing the cells, the compound of the present invention was added, and the cells were cultured for 24 hours.
After drug treatment, the cells were harvested, and the Fc receptor blocking process was performed. The cells were then fixed and permeabilized using the Intracellular Staining Kit (Cat. No. BD554715) from BD Biosciences. Subsequently, the intracellular pPDK1 was stained using the pPDK1-PE fluorescently labeled antibody (BD Biosciences).
Referring to the figure, the vertical axis represents the phosphorylation level of PDK1 (phospho-PDK1 expression level), and the horizontal axis denotes the concentration-dependent treatment conditions of each compound.
On the technique in general: In flow cytometry, cells or beads pass a laser one at a time.

In experiment [3] the test system is MRL/MpJ-Faslpr/J (MRL/lpr) lupus animal model. Description: Systemic lupus erythematosus model, MRL/lpr mice. Type of experiment: in vivo. An excerpt:
The MRL/MpJ-Faslpr/J (hereinafter referred to as “MRL/lpr”) used in this experiment is one of the representative animal models for systemic lupus erythematosus (SLE), known to produce various autoantibodies, including antinuclear antibodies, due to the lpr (lymphoproliferation) gene.
Generally, female MRL/lpr develop systemic lupus erythematosus around 12 weeks of age, and approximately 50% of the animals die by 30 weeks of age.
In this invention, the period up to 9 weeks of age was considered the pre-disease stage, and the period after 23 weeks of age was considered the post-disease stage, and efficacy verification experiments using this model were conducted.
To obtain experimental animals, female MRL/lpr mice aged 6 weeks were imported from The Jackson Laboratory, and MRL/lpr mice were imported from The Jackson Laboratory and acclimatized for one week in an SPF (Specific Pathogen Free) facility maintained at a temperature of 21-24° C., humidity of 40-60%, and a 12-hour light-dark cycle (lights on at 7:00 AM, lights off at 7:00 PM).
Subsequently, female and male MRL/lpr mice were mated at a ratio of 2:1 in the same facility, and the female offspring were administered the compound G015F of the present invention or vehicle at a dose of 30 mg/kg once daily via intraperitoneal injection or oral administration from the age of 10 weeks until 23 weeks of age.
Urine samples were collected once a week from each individual and used for analytical experiments.
At 23 weeks of age, necropsy was performed on each MRL/lpr mouse, and serum, kidneys, and spleens were isolated and used for analytical experiments.
The protein concentration in urine collected weekly from the control group or experimental group was analyzed using ‘Quick Start™ Bradford 1× Dye Reagent (Bio-Rad, Cat. #5000205).’
In each well of a 96-well plate, 5 μl of urine sample diluted with triple-distilled water and 250 μl of 1× dye reagent were added, reacted, and the absorbance was measured at 595 nm.
The concentration of anti-nuclear antibodies (Anti-dsDNA Ab) was measured using the ‘Mouse Anti-dsDNA IgG ELISA Kit (Alpha Diagnostic International, Cat. #5120)’ on serum isolated at the time of necropsy in the lupus animal model.
Each mouse serum was diluted to a final concentration of 1/5000 with Working Sample Diluent (WSD) and Low NSB Sample Diluent (LNSD), followed by adding 100 μl of the diluted serum to wells coated with anti-dsDNA and incubating at room temperature for 60 minutes.
The wells were then washed four times with 200 μl of washing buffer, followed by the addition of 100 μl of Anti-Mouse IgG-HRP antibody, and the mixture was incubated at room temperature for 30 minutes.
Each well was washed four times with 200 μl of washing buffer, and 100 μl of 3,3′,5,5′-Tetramethylbenzidine (TMB) substrate solution was added to each well.
The degree of color change to blue in the wells containing the standard solution was checked, and after 15 minutes, 100 μl of stop solution was added to terminate the reaction.
After the reaction was complete, the optical density (OD) was measured at 450 nm. […]
After that, each well was washed twice with 400 μl of washing solution, and 100 μl of TMB substrate solution was added to each well.
The degree of color change to blue in the wells containing the standard solution was checked, and after 15 minutes, 100 μl of stop solution was added to stop the reaction.
To investigate the effect of G015F administration on changes in the ratio of immune cells in the spleen of a lupus animal model, the spleens of mice administered each compound were excised, cells were extracted, and the cells were suspended in MACS buffer (autoMACS Washing Solution, Miltenyi Biotec., Cat. #130-092-987).
For flow cytometry analysis, FACS tubes (5 mL round tubes, Falcon, Cat. #352052)were used. […]

For experiment [4], the system named is bleomycin-induced pulmonary fibrosis mice. Briefly: Pulmonary fibrosis model induced by bleomycin intratracheal administration. The experiment is classed as in vivo, Balb/c mice. The conditions noted are these: BLM mice, vs BLM-treated group. The source says:
To evaluate the therapeutic efficacy of the compound according to the present invention against pulmonary fibrosis, an animal model of pulmonary fibrosis induced by bleomycin intratracheal administration was established.
For this purpose, 8-week-old male Balb/c mice were subjected to general anesthesia using an inhalation anesthetic (2-3% isoflurane in oxygen), followed by disinfection of the neck region, skin incision, and exposure of the trachea.
Bleomycin (Sigma-Aldrich, USA)was directly administered into the trachea at a concentration of 5 mg/kg in a solution of […].
Two days prior to Bleomycin administration, the compound of the present invention or the comparative drug was administered intraperitoneally at the specified concentration and dose, and the administration was continued once daily for a total of 14 days.
The experimental groups included Normal, Bleomycin alone (BLM), and BLM plus the compound of the present invention (BLM+G088, 0.2 mg/kg).
Ten days later, the mice were euthanized humanely using carbon dioxide gas, the trachea was incised, and PBS was injected into the trachea to remove blood from the lungs.
The lung tissue washed with PBS was excised, fixed in 4% paraformaldehyde solution for 24 hours, and then paraffin blocks and tissue sections were prepared. The prepared sections were subjected to pathological analysis using H&E, Masson's trichrome, and Sirius red staining.
Additionally, immunohistochemical (IHC) staining was performed for α-SMA (α-smooth muscle actin), an indicator of lung fibroblast activation.

Experiment [5] deals with T2, full-length PDK1 (PDK1-FL) (Homo sapiens, UniProt O15530).
T2 construct: full-length (PDK1-FL) protein of human-derived PDK1; made in house; host or cells: Sf9 insect cells, baculovirus
T2 sequence (O15530 1-556): T1 sequence (O15530 1-556)
Description: Binding affinity by Microscale Thermophoresis (MST), full-length PDK1. The note with it: ratio of Kd values. How it is done:
Experimental Example 16: Binding affinity experiment with PDK1 using MST Microscale Thermophoresis (MST) analysis was performed to quantitatively measure the binding affinity between PDK1 protein and substrate peptides (PDKTide) or the company-developed low-molecular-weight compound (GO88).
The target proteins were the full-length (PDK1-FL) protein of human-derived PDK1 and the Protein Kinase Domain (PKD) fragment, which were expressed using a baculovirus expression system in insect cell lines (Sf9).
The purity of the purified proteins was confirmed by SDS-PAGE and Coomassie Brilliant Blue staining.
The purified protein was labeled with a fluorescent label using the Monolith NT™ RED-NHS Protein Fluorescent Labeling Kit (NanoTemper).
Specifically, 20 μM of the protein was dissolved in PBS (pH 7.4) buffer, mixed with the fluorescent reagent, and reacted at room temperature under dark conditions for 30 minutes. The mixture was then buffered with MST analysis buffer (50 mM HEPES, 150 mM NaCl, 1 mM DTT, 0.05% Tween-20, pH 7.5). […]
The reaction samples were injected into an MST-specific capillary (NanoTemper) and analyzed using a Monolith NT.115 device (NanoTemper) under laser intensity conditions. […]
The measured data were analyzed using MO.Affinity Analysis software (NanoTemper), and the dissociation constant (Kd) was calculated from the binding curve.
Background: In MST a laser heats a spot of the sample, and binding alters the fluorescence response.

In experiment [6] the test system is human lung fibroblasts MRC-5 cell lines. Briefly: Collagen I Western blot in TGF-β treated MRC-5 cells. Type of experiment: cell-based. The conditions noted are these: MRC-5, TGF-β (5 ng/ml), G088 0.5 μM and 1 M (so in the source), 24 hours. The protocol:
To confirm that the compound of the present invention directly acts on fibrosis-related mechanisms, in vitro experiments were performed using human lung fibroblasts MRC-5 cell lines (Korea Cell Bank).
First, MRC-5 cells were seeded at 5×10^3 cells per well in a 6-well plate and stabilized for 24 hours.
Subsequently, experimental groups were established, including a control group, a group treated with TGF-β (5 ng/ml) alone, and groups treated with TGF-β and the compound G088 from the present invention at concentrations of 0.5 μM and […], respectively.
After treating each group with the drugs for 24 hours, the cell medium was removed, and the cells were washed twice with cold PBS. Then, RIPA lysis buffer containing phosphatase inhibitor and protease inhibitor was added to each group to extract proteins.
The extracted proteins were incubated at 4° C. for 30 minutes, then centrifuged at 13,000 rpm for 15 minutes, and the supernatant was collected. The total protein concentration was measured using the BCA protein quantification method.
Subsequently, the proteins were separated by SDS-PAGE, transferred to a PVDF membrane, and Western blot analysis was performed.
The expression levels of Collagen I, a marker related to pulmonary fibrosis, were confirmed, with GAPDH used as an internal control.

Where [7] appears, read: serum at necropsy (23 weeks), ELISA.

Consider `Nc1ncccc1C(=O)NCCCCCCCCCCCCN1CCOCC1` [Compound 2, 2-Amino-N-(12-morpholin-4-yl-dodecyl)-nicotinamide], for which the “hair growth on the facial region” value in experiment [1] is “hair growth was confirmed”. The “phospho-PDK1 expression level (inhibition of PDK1 phosphorylation)” value in experiment [2] was “stronger PDK1 inhibition”.
For the molecule `Nc1ncccc1C(=O)NCCCCCCCCCCCCF` [Compound G015F], in experiment [3] (30 mg/kg once daily, weekly urine, Bradford), the “protein concentration in urine” value was “significantly lower”. In addition, the “renal pathological tissue staining (glomeruli)” value in experiment [3] (H&E, PAS, Masson trichrome) is “glomerular capillary loops were well maintained”. Also, the “B cells, T cells and macrophages in the spleen” value in experiment [3] (flow cytometry (B220, CD3, CD11b/F4/80)) is “reduced the increased B cells, T cells, and macrophages”. The “IgG deposition in kidney tissue” value in experiment [3] (immunofluorescence staining) is given as “significantly lower”. In experiment [3] (setting [7]), the “concentration of anti-dsDNA IgG in the blood” value is “significantly lower” and the “total IgG concentration in the blood” value is “significantly lower”. In experiment [4], the “collagen deposition (Masson's trichrome, Sirius red)” value is listed as “significantly reduced” and the “expression of α-SMA in lung tissue (IHC)” value is on record as “significantly suppressed”. Also, the “phospho-PDK1 expression level (inhibition of PDK1 phosphorylation)” value in experiment [2] is “inhibitory effect on PDK1 phosphorylation”.
On to `Nc1ncccc1C(=O)NCCCCCCCCCCCCN1CCNCC1` [Compound G088], for which the “hair growth on the facial region” value in experiment [1] was “hair growth was confirmed”. In addition, the “binding affinity of full-length PDK1 compared to the PDK fragment” value in experiment [5] is recorded as “six times stronger”. In experiment [4], the “collagen deposition (Masson's trichrome, Sirius red)” value was “significantly reduced” and the “expression of α-SMA in lung tissue (IHC)” value was “significantly suppressed”. Also, the “protein expression of Collagen I” value in experiment [6] was “inhibited in a concentration-dependent manner”. In experiment [2], the “phospho-PDK1 expression level (inhibition of PDK1 phosphorylation)” value was “stronger PDK1 inhibition”.
